Laboratory results as given in the supplement of paper PMC10307832.

Experiments:
Assay in all cases: relative viability (nuclei count vs DMSO), 5 days (fraction); higher = more cells survive
[1] = compound: CC1CC(=O)N(C2=CN=C(N=C2N1C3CCCC3)NC4=C(C=C(C=C4)C(=O)NC5CCN(CC5)C)OC)C [NPK76-II-72-1] + COc1cc2c(Oc3ccc(NC(=O)C4(C(=O)Nc5ccc(F)cc5)CC4)cc3F)ccnc2cc1OCCCN1CCOCC1 [Foretinib] (partner 0.25 µM)
Summary of the method: (§1)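 Cells from lung cancer lines were seeded into 1536-well plates and, one day later, dosed by pin tool. Treatments were either a single drug or a fixed dose of an anchor drug with five library-drug doses (not always all listed) in √10 steps. After 5 days, nuclei were stained in a one-step fixation (final 0.05% Triton X-100, 1% formaldehyde, 1 ug/ml Hoechst) and counted on 4× images, and relative viability is the treated-to-vehicle nuclei ratio, as the median of duplicate plates.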

[2] = compound: CC1CC(=O)N(C2=CN=C(N=C2N1C3CCCC3)NC4=C(C=C(C=C4)C(=O)NC5CCN(CC5)C)OC)C [NPK76-II-72-1] + CS(=O)(=O)N1CCN(Cc2cc3nc(-c4cccc5[nH]ncc45)nc(N4CCOCC4)c3s2)CC1 [Pictilisib] (partner 1 µM)
Summary of the method: as §1

BI-2536 + Tozasertib = compound: CC[C@@H]1C(=O)N(C)c2cnc(Nc3ccc(C(=O)NC4CCN(C)CC4)cc3OC)nc2N1C1CCCC1 [BI-2536] + Cc1cc(Nc2cc(N3CCN(C)CC3)nc(Sc3ccc(NC(=O)C4CC4)cc3)n2)n[nH]1 [Tozasertib] (partner 0.1 µM)
Summary of the method: as §1

BI-2536 + Olaparib = compound: CC[C@@H]1C(=O)N(C)c2cnc(Nc3ccc(C(=O)NC4CCN(C)CC4)cc3OC)nc2N1C1CCCC1 [BI-2536] + O=C(c1cc(Cc2n[nH]c(=O)c3ccccc23)ccc1F)N1CCN(C(=O)C2CC2)CC1 [Olaparib] (partner 8 µM)
Summary of the method: as §1

Cell Line	relative viability ([1]; first compound 0.01 µM)	relative viability ([1]; first compound 0.03162 µM)	relative viability ([1]; first compound 0.1 µM)	relative viability ([1]; first compound 0.3162 µM)	relative viability ([1]; first compound 1 µM)	relative viability ([2]; first compound 0.01 µM)	relative viability ([2]; first compound 0.03162 µM)	relative viability ([2]; first compound 0.1 µM)	relative viability ([2]; first compound 0.3162 µM)	relative viability ([2]; first compound 1 µM)	relative viability (BI-2536 + Tozasertib; first compound 0.01 µM)	relative viability (BI-2536 + Tozasertib; first compound 0.03162 µM)	relative viability (BI-2536 + Tozasertib; first compound 0.1 µM)	relative viability (BI-2536 + Tozasertib; first compound 0.3162 µM)	relative viability (BI-2536 + Tozasertib; first compound 1 µM)	relative viability (BI-2536 + Olaparib; first compound 0.01 µM)	relative viability (BI-2536 + Olaparib; first compound 0.03162 µM)	relative viability (BI-2536 + Olaparib; first compound 0.1 µM)	relative viability (BI-2536 + Olaparib; first compound 0.3162 µM)	relative viability (BI-2536 + Olaparib; first compound 1 µM)
SK-LU-1	0.814	0.83	0.879	0.833	0.893	0.532	0.648	0.514	0.645	0.584	0.323	0.317	0.323	0.218	0.176	0.418	0.503	0.302	0.179	0.167
PC-3 [JPC-3]	1.04	1.06	0.96	0.952	1.12	0.779	0.772	0.561	0.667	0.743	0.889	0.693	0.707	0.289	0.313	1.22	0.896	0.582	0.327	0.369
EMC-BAC-2	1.05	1.07	1.07	0.945	1.2	0.488	0.6	0.558	0.566	0.544	0.302	0.302	0.201	0.212	0.209	0.463	0.324	0.303	0.207	0.231
LK-2	1.15	1.26	1.09	1.09	1.13	0.582	0.567	0.636		0.582	0.152	0.151	0.173	0.187	0.185	0.578	0.491	0.28	0.098	0.134
NCI-H2126	1.47	1.23	0.916	1.14	1.17	0.508	0.517	0.457	0.507	0.476	0.884	0.373	0.296	0.236	0.269	0.968	0.891	0.77	0.322	0.241
NCI-H3122	0.93	1.01	0.902	0.866	0.958	0.625	0.618	0.601	0.652	0.63	0.363	0.207	0.266	0.297	0.246	0.621	0.595	0.276	0.131	0.146
NCI-H1975	1.01	0.981	0.826	0.929	0.943	0.267	0.278	0.28	0.279	0.277	0.664	0.673	0.393	0.116	0.0975	0.776	0.71	0.544	0.161	0.169
HCC-44						0.542	0.911	0.624	0.587	0.685	0.967	0.333	0.262	0.143	0.216	1.05	1	0.952	0.378	0.33
NCI-H1299	1.11	1.12	1.2	1.07	1.03	0.79	0.738	0.839	0.702	0.777						1.01	0.907	0.828	0.237	0.221
NCI-H1648											0.437	0.414	0.336	0.159	0.22	0.794	0.887	0.545	0.23	0.275
NCI-H1563	0.84	0.875	0.933	0.923	0.845	0.658	0.66	0.602	0.599	0.665										
A549	0.937	0.979	0.93	0.856	1.05	0.469	0.509	0.535	0.529	0.572						0.267	0.444	0.125	0.0214	0.0368
NCI-H522											0.488	0.581	0.634	0.447	0.412	0.655	0.594	0.689	0.364	0.316
NCI-H1623	0.836	0.872	0.914	0.566	0.998						0.478	0.448	0.383	0.402	0.328					
SW 900	0.864	1.27	0.852	0.76	0.947						0.566	0.694	0.418	0.278	0.173	0.804	1.05	0.691	0.215	0.153
IA-LM	1.06	1.18	1.18	1.12	1.26	0.314	0.363	0.33	0.243	0.334						0.763	0.752	0.402	0.101	0.102
EBC-1	0.103	0.121	0.0919	0.114	0.108	0.404	0.432	0.536	0.347	0.456						0.616	0.612	0.377	0.139	0.133
